Measured values reported in US9365522B2, “Pyrazole amide derivative” (AMGEN INC., priority 2015, dated 2016).

Biological target: T1, ligand binding domain of human ROR gamma (Homo sapiens, UniProt P51449)
T1 construct: NM_001001523; expressed in transfected cells; host or cells: HEK293T
T1 sequence (P51449 247-497 isoform P51449-2): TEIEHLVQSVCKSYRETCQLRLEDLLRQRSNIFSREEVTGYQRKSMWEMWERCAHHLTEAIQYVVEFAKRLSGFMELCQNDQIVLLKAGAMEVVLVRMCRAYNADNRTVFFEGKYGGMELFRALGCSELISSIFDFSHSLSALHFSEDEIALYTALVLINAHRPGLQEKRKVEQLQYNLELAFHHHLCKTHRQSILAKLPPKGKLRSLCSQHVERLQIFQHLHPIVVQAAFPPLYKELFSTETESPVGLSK
Test: ROR gamma reporter gene assay (GAL4-RORγ LBD luciferase, Dual-Glo)
Assay type: cell-based
Settings: HEK293T cells transfected with pM-ROR gamma, 8 concentrations 3.5 nM to 10.5 μM, 24 h incubation; read-out: result (pIC50, inhibition of RORγ transcriptional activity) (converted)
Description: Luciferase reporter gene assay was used to assess inhibition of RORγ transcriptional activity.
ROR gamma expression vector was prepared by inserting the ligand binding domain of human ROR gamma (amino acid 247-497 of Genbank Accession NO. NM_001001523) adjacent to the yeast GAL4 transcription factor DNA binding domain in the expression vector pM (Clontech). The resulting expression vector pM-ROR gamma was used in transfection experiments together with the pGL4 luciferase reporter plasmid (Promega) containing five copies of the UAS GAL4 recognition site and pRL-CMV plasmids (Promega) containing the constitutive CMV promoter and the renilla luciferase.
For preparing transfection reagent/DNA mixture, 1 μg pM-ROR gamma, 1 μg pGL4 5×UAS, 625 pg pRL-CMV and 6.25 μL FuGENE™ HD transfection reagent (Promega) were mixed in 0.25 mL OPTI-MEM™ (Life technologies) at room temperature. At the same time, Negative control DNA mixture was prepared by using 1 μg pM empty vector instead of pM-ROR gamma plasmid. After a fifteen minute incubation, 0.25 mL of transfection reagent/DNA mixture was added to 1,000,000 of HEK293T cells (ATCC) in 5 mL of OPTI-MEM™ containing 10% Charcoal Stripped Fetal Bovine Serum.
Transfected cells were seeded onto 384 well plate (10 μL/well) and the 7.5 nL of test compounds were added to the wells in 8 concentrations ranging from 3.5 nM to 10.5 μM. The compounds were dissolved in 100% DMSO and the final concentration of DMSO in the assay was 0.075%.
After 24 h of incubation at 37° C., 5% CO2 in a cell culture incubator, the Dual-Glo™ Luciferase Assay System was used to detect activity according to the manufacturer's instructions (Promega, Cat. No.: E2920).
Data was plotted and pIC50 values were calculated using the XLfit program (ID Business Solutions Ltd.).

Row | IC50 | Compound
1 | 2690 pM | C[C@]1(C(=O)O)CC[C@H](n2ncc(C(=O)N(CC(=O)c3c(Cl)cc(F)cc3Cl)CC3(F)CCCC3)c2C(F)(F)F)CC1 [Example 224, trans-4-(4-((2-(2,6-dichloro-4-fluorophenyl)-2-oxoethyl)-((1-fluorocyclopentyl)methyl)carbamoyl)-5-(trifluoromethyl)pyrazol-1-yl)-1-methylcyclohexane-1-carboxylic acid]
2 | 245000 pM | Cc1cc(Cl)cc(C)c1C(=O)CN(C(=O)c1cnn([C@H]2CC[C@](C)(C(=O)O)CC2)c1C(F)(F)F)C1CCC(C)(C)CC1 [Example 280, trans-4-(4-((2-(4-chloro-2,6-dimethylphenyl)-2-oxoethyl)-(4,4-dimethylcyclohexyl)carbamoyl)-5-(trifluoromethyl)pyrazol-1-yl)-1-methylcyclohexane-1-carboxylic acid]
3 | 102000 pM | CC(C)(C)[C@@H]1C[C@H]1N(CC(=O)c1c(Cl)cncc1Cl)C(=O)c1cnn([C@H]2CC[C@](C)(C(=O)O)CC2)c1C(F)(F)F [Example 331, trans-4-(4-(((1R,2S)-2-tert-butylcyclopropyl)-(2-(3,5-dichloropyridin-4-yl)-2-oxoethyl)carbamoyl)-5-(trifluoromethyl)pyrazol-1-yl)-1-methylcyclohexane-1-carboxylic acid]
4 | 4270 pM | C[C@]1(C(=O)O)CC[C@H](n2ncc(C(=O)N(CC(=O)c3c(Cl)cccc3Cl)CC3(F)CCCC3)c2C(F)(F)F)CC1 [Example 281, trans-4-(4-((2-(2,6-dichlorophenyl)-2-oxoethyl)-((1-fluorocyclopentyl)methyl)carbamoyl)-5-(trifluoromethyl)pyrazol-1-yl)-1-methylcyclohexane-1-carboxylic acid]
5 | 6030 pM | CC1(C)CC(CN(CC(=O)c2c(Cl)cccc2C(F)(F)F)C(=O)c2cnn([C@H]3CC[C@](C)(C(=O)O)CC3)c2C(F)(F)F)C1 [Example 251, trans-4-(4-((2-(2-chloro-6-(trifluoromethyl)phenyl)-2-oxoethyl)-((3,3-dimethylcyclobutyl)methyl)carbamoyl)-5-(trifluoromethyl)pyrazol-1-yl)-1-methylcyclohexane-1-carboxylic acid]
6 | 186000 pM | CC1(C)CCC(N(CC(=O)c2c(Cl)cc(F)cc2Cl)C(=O)c2cnn([C@H]3CC[C@@](C)(C(=O)O)CC3)c2C(F)(F)F)CC1 [Example 301, cis-4-(4-((2-(2,6-dichloro-4-fluorophenyl)-2-oxoethyl)-(4,4-dimethylcyclohexyl)carbamoyl)-5-(trifluoromethyl)pyrazol-1-yl)-1-methylcyclohexane-1-carboxylic acid]
7 | 72400 pM | C[C@]1(C(=O)O)CC[C@H](n2ncc(C(=O)N(CC(=O)c3c(Cl)cncc3Cl)CC3(C(F)(F)F)CC3)c2Cl)CC1 [Example 388, trans-4-(5-chloro-4-((2-(3,5-dichloropyridin-4-yl)-2-oxoethyl)-((1-(trifluoromethyl)cyclopropyl)methyl)carbamoyl)pyrazol-1-yl)-1-methylcyclohexane-1-carboxylic acid]

Continued, compound first:

Row | Compound | IC50
8 | O=C(CN(Cc1ccc(F)c(F)c1)C(=O)c1cnn([C@H]2CC[C@H](C(=O)O)CC2)c1C(F)(F)F)c1c(Cl)cncc1Cl [Example 44, trans-4-(4-((2-(3,5-dichloropyridin-4-yl)-2-oxoethyl)(3,4-difluorobenzyl)carbamoyl)-5-(trifluorornethyl)-1H-pyrazol-1-yl)cyclohexanecarboxylic acid] | 14800 pM
9 | Cc1ccc(N)c(C(=O)CN(Cc2cc(F)cc(F)c2)C(=O)c2cnn([C@H]3CC[C@H](C(=O)O)CC3)c2C(F)(F)F)c1 [Example 143, trans-4-(4-((2-(2-amino-5-methylphenyl)-2-oxoethyl)-((3,5-difluorophenyl)methyl)carbamoyl)-5-(trifluoromethyl)pyrazol-1-yl)cyclohexane-1-carboxylic acid] | 2.24e+06 pM
10 | COc1cccc(Cl)c1C(=O)CN(Cc1cc(F)cc(F)c1)C(=O)c1cnn([C@H]2CC[C@H](C(=O)O)CC2)c1C(F)(F)F [Example 54, trans-4-(4-((2-(2-chloro-6-methoxyphenyl)-2-oxoethyl)(3,5-difluorobenzyl)carbamoyl)-5-(trifluoromethyl)-1H-pyrazol-1-yl)cyclohexanecarboxylic acid] | 70800 pM
11 | Cc1cc(Cl)c(C(=O)CN(CC(C)(C)C)C(=O)c2cnn([C@H]3CC[C@](C)(C(=O)O)CC3)c2Cl)c(Cl)c1 [Example 359, trans-4-(5-chloro-4-((2-(2,6-dichloro-4-methylphenyl)-2-oxoethyl)-(2,2-dimethylpropyl)carbarnoyl)pyrazol-1-yl)-1-methylcyclohexane-1-carboxylic acid] | 26300 pM
12 | CC1(C)[C@@H]2C[C@H](N(C[C@H](O)c3sccc3Cl)C(=O)c3cnn([C@H]4CC[C@](C)(C(=O)O)CC4)c3C(F)(F)F)C[C@@H]21 [Example 396, trans-4-(4-((2-(3-chlorothiophen-2-yl)-2-hydroxyethyl)((1R,3r,5S)-6,6-dimethylbicyclo[3.1.0]hexan-3-yl)carbamoyl)-5-(trifluoromethyl)-1H-pyrazol-1-yl)-1-methylcyclohexanecarboxylic acid] | 891000 pM
13 | O=C(CN(CC1CCC1)C(=O)c1cnn([C@H]2CC[C@H](C(=O)O)CC2)c1C(F)(F)F)c1c(Cl)cncc1Cl [Example 28, trans-4-(4-((cyclobutylmethyl)(2-(3,5-dichloropyridin-4-yl)-2-oxoethyl)carbamoyl)-5-(trifluoromethyl)-1H-pyrazol-1-yl)cyclohexanecarboxylic acid] | 195000 pM
14 | O=C(CN(CC1CCCCN1)C(=O)c1cnn([C@H]2CC[C@H](C(=O)O)CC2)c1C(F)(F)F)c1c(Cl)cncc1Cl (stereo partly drawn) [Example 121, trans-4-(4-((2-(3,5-dichloropyridin-4-yl)-2-oxoethyl)-(piperidin-2-ylmethyl)carbamoyl)-5-(trifluoromethyl)pyrazol-1-yl)cyclohexane-1-carboxylic acid] | > 1e+07 pM
15 | O=C(CN(CC1CCC2(CC1)CC2)C(=O)c1cnn([C@H]2CC[C@H](C(=O)O)CC2)c1C(F)(F)F)c1c(Cl)cncc1Cl [Example 37, trans-4-(4-((2-(3,5-dichloropyridin-4-yl)-2-oxoethyl)(spiro[2.5]octan-6-ylmethyl)carbamoyl)-5-(trifluoromethyl)-1H-pyrazol-1-yl)cyclohexanecarboxylic acid] | 18600 pM
16 | CC(C)(C)OCCN(CC(=O)c1c(Cl)cc(C(F)(F)F)cc1Cl)C(=O)c1cnn([C@H]2CC[C@H](C(=O)O)CC2)c1C(F)(F)F [Example 144, trans-4-(4-((2-(2,6-dichloro-4-(trifluoromethyl)phenyl)-2-oxoethyl)-(2-((2-methylpropan-2-yl)oxy)ethyl)carbamoyl)-5-(trifluoromethyl)pyrazol-1-yl)cyclohexane-1-carboxylic acid] | 87100 pM
17 | O=C(CN(Cc1cc(F)cc(F)c1)C(=O)c1cnn([C@H]2CC[C@H](C(=O)O)CC2)c1C(F)(F)F)c1cc(Cl)cc(Cl)c1 [Example 59, trans-4-(4-((2-(3,5-dichlorophenyl)-2-oxoethyl)(3,5-difluorobenzyl)carbamoyl)-5-(trifluoromethyl)-1H-pyrazol-1-yl)cyclohexanecarboxylic acid] | 5.89e+06 pM
18 | Cc1ncc(Cl)c(C(O)CN(C(=O)c2cnn([C@H]3CC[C@](C)(C(=O)O)CC3)c2C(F)(F)F)[C@H]2C[C@@H]3[C@H](C2)C3(C)C)n1 (stereo partly drawn) [Example 407, trans-4-(4-((2-(5-chloro-2-methylpyrimidin-4-yl)-2-hydroxyethyl)((1R,3r,5S)-6,6-dimethylbicyclo[3.1.0]hexan-3-yl)carbamoyl)-5-(trifluoromethyl)-1H-pyrazol-1-yl)-1-methylcyclohexanecarboxylic acid] | 479000 pM
19 | CC(C)(C)CN(CC(=O)c1c(Cl)cc(F)cc1Cl)C(=O)c1cnn(C23CCC(C(=O)O)(CC2)CC3)c1C(F)(F)F [Example 245, 4-(4-((2-(2,6-dichloro-4-fluorophenyl)-2-oxoethyl)-(2,2-dimethylpropyl)carbamoyl)-5-(trifluoromethyl)pyrazol-1-yl)bicyclo[2.2.2]octane-1-carboxylic acid] | 8910 pM
